The values that follow come from ChEMBL document CHEMBL4431375, “Stereochemistry Balances Cell Permeability and Solubility in the Naturally Derived Phepropeptin Cyclic Peptides” (ACS Med Chem Lett, 2016).

Data set [1] can be described thus: Metabolic stability in human plasma assessed as compound degradation at 2 uM measured after 30 mins by LC-ESI/MS analysis. In kind it is ADME, cell-free. As to conditions: 0.5 h.
Data set [2] is described as follows: Thermodynamic aqueous solubility of the compound at 2 mM and pH 7.4 measured after 20 hrs by HPLC analysis. As to conditions: aqueous medium, read-out: Therm_solubility. In kind it is physicochemical.
A short description of data set [3]: Apparent passive permeability in MDCK cells expressing MDR1 (unknown origin) at 5 uM measured after 60 mins by LC-MS/MS analysis. The settings on record: dog. In kind it is ADME, cell-based, Canis lupus familiaris.
Data set [4] can be described thus: Octanol-water partition coefficient, log D of the compound at pH 7.4 by shake flask method. In kind it is physicochemical.

Converted amounts (≈) assume the structure as drawn.

The term Papp denotes the rate of passage across a membrane or cell layer, normalised by area and donor concentration. The term logD denotes lipophilicity at a set pH, counting ionised and neutral species.

`CC[C@H](C)[C@@H]1NC(=O)[C@@H](CC(C)C)NC(=O)[C@H](Cc2ccccc2)NC(=O)[C@@H]2CCCN2C(=O)[C@@H](Cc2ccccc2)NC(=O)[C@H](CC(C)C)NC1=O`: the Stability result in data set [1] is “Stable”. Besides, the solubility thermodynamic at 20 h, 2000 µM in data set [2] is 10 µg/mL (≈ 13.7 µM). The Papp at 1 h, 5 µM in data set [3] came out at 40 ×10⁻⁶ cm/s.

As for `CC(C)C[C@@H]1NC(=O)[C@H](C(C)C)NC(=O)[C@@H](CC(C)C)NC(=O)[C@H](Cc2ccccc2)NC(=O)[C@@H]2CCCN2C(=O)[C@@H](Cc2ccccc2)NC1=O`, in data set [1], the Stability entry is recorded as “Stable”. Further, the solubility thermodynamic at 20 h, 2000 µM in data set [2] turned out to be 50 µg/mL (≈ 69.7 µM). Further, in data set [3], the Papp at 1 h, 5 µM turned out to be 39 ×10⁻⁶ cm/s. For the same compound, the logD in data set [4] was determined as 2.33.

`CC(C)C[C@@H]1NC(=O)[C@H](C(C)C)NC(=O)[C@@H](CC(C)C)NC(=O)[C@H](CC(C)C)NC(=O)[C@H]2CCCN2C(=O)[C@@H](Cc2ccccc2)NC1=O`: the Stability result in data set [1] is recorded as “Stable”. In data set [2], the solubility thermodynamic at 20 h, 2000 µM was determined as 150 µg/mL (≈ 220 µM). Moreover, the Papp at 1 h, 5 µM in data set [3] came to 8 ×10⁻⁶ cm/s. This compound gave a logD in data set [4] of 2.37.

Regarding `CC[C@H](C)[C@@H]1NC(=O)[C@@H](CC(C)C)NC(=O)[C@H](Cc2ccccc2)NC(=O)[C@H]2CCCN2C(=O)[C@@H](Cc2ccccc2)NC(=O)[C@H](CC(C)C)NC1=O`, the Stability entry in data set [1] is reported as “Stable”. In addition, in data set [2], the solubility thermodynamic at 20 h, 2000 µM is 30 µg/mL (≈ 41 µM). Also, in data set [3], the Papp at 1 h, 5 µM turned out to be 18 ×10⁻⁶ cm/s.

`CC(C)C[C@@H]1NC(=O)[C@H](C(C)C)NC(=O)[C@@H](CC(C)C)NC(=O)[C@H](Cc2ccccc2)NC(=O)[C@H]2CCCN2C(=O)[C@@H](Cc2ccccc2)NC1=O`: in data set [1], the Stability entry is “Stable”. In data set [2], the solubility thermodynamic at 20 h, 2000 µM was determined as 70 µg/mL (≈ 97.6 µM). The Papp at 1 h, 5 µM in data set [3] was determined as 11 ×10⁻⁶ cm/s. Further, the logD in data set [4] is 2.41.

Consider `CC[C@H](C)[C@@H]1NC(=O)[C@@H](CC(C)C)NC(=O)[C@H](CC(C)C)NC(=O)[C@@H]2CCCN2C(=O)[C@@H](Cc2ccccc2)NC(=O)[C@H](CC(C)C)NC1=O`, for which the Stability result in data set [1] is on record as “Stable”. The solubility thermodynamic at 20 h, 2000 µM in data set [2] came out at 60 µg/mL (≈ 86.1 µM). The Papp at 1 h, 5 µM in data set [3] turned out to be 40 ×10⁻⁶ cm/s. The compound further registered a logD in data set [4] of 2.63.

In the case of `CC(C)C[C@@H]1NC(=O)[C@H](C(C)C)NC(=O)[C@@H](CC(C)C)NC(=O)[C@H](CC(C)C)NC(=O)[C@@H]2CCCN2C(=O)[C@@H](Cc2ccccc2)NC1=O`, the Stability result in data set [1] was “Stable”. Moreover, the solubility thermodynamic at 20 h, 2000 µM in data set [2] was determined as 170 µg/mL (≈ 249 µM). Also, in data set [3], the Papp at 1 h, 5 µM was determined as 33 ×10⁻⁶ cm/s. For the same compound, the logD in data set [4] was found to be 2.08.

For `CC[C@H](C)[C@@H]1NC(=O)[C@@H](CC(C)C)NC(=O)[C@H](CC(C)C)NC(=O)[C@H]2CCCN2C(=O)[C@@H](Cc2ccccc2)NC(=O)[C@H](CC(C)C)NC1=O`, the Stability result in data set [1] is listed as “Stable”. Further, the solubility thermodynamic at 20 h, 2000 µM in data set [2] was 70 µg/mL (≈ 100 µM). Further, the Papp at 1 h, 5 µM in data set [3] came to 15 ×10⁻⁶ cm/s. This compound also came in with a pH-dependent lipophilicity (logD) in data set [4] of 2.39.
